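Each compound was tested at five concentrations against cells in 96-well plates for 48 hours. The concentration for 50% growth inhibition is given as GI50.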 Active and inactive are the calls of the source. Cut-off read from the data, not from the text of the source: active = GI50 up to about 1.1 µM and inactive = higher.
Columns and labels:
Assay in all cases: inhibition of tumour cell growth, NCI panel, 48 h
A498 = tested on: A498
ACHN = tested on: ACHN
CAKI-1 = tested on: CAKI-1
HCT-116 = tested on: HCT-116
HCT-15 = tested on: HCT-15
HOP-62 = tested on: HOP-62
HT-29 = tested on: HT-29
K562 = tested on: K562
M14 = tested on: M14
MOLT-4 = tested on: MOLT-4
Malme-3M = tested on: Malme-3M
OVCAR-4 = tested on: OVCAR-4
OVCAR-5 = tested on: OVCAR-5
OVCAR-8 = tested on: OVCAR-8
RXF 393 = tested on: RXF 393
SK-MEL-5 = tested on: SK-MEL-5
SNB-75 = tested on: SNB-75
SW-620 = tested on: SW-620
UO-31 = tested on: UO-31
NCI-H522 = tested on: NCI-H522

Compound	GI50 (A498)	GI50 (ACHN)	GI50 (CAKI-1)	GI50 (HCT-116)	GI50 (HCT-15)	GI50 (HOP-62)	GI50 (HT-29)	GI50 (K562)	GI50 (M14)	GI50 (MOLT-4)	GI50 (Malme-3M)	GI50 (OVCAR-4)	GI50 (OVCAR-5)	GI50 (OVCAR-8)	GI50 (RXF 393)	GI50 (SK-MEL-5)	GI50 (SNB-75)	GI50 (SW-620)	GI50 (UO-31)	GI50 (NCI-H522)
CC1OC(OCC2COC(O)(Oc3c(-c4ccc(O)c(O)c4)oc4cc(O)cc(O)c4c3=O)C(O)C2O)C(O)C(O)C1O (configuration not stated)	> 100 µM (inactive)	> 100 µM (inactive)	> 100 µM (inactive)	> 100 µM (inactive)	> 100 µM	> 100 µM (inactive)	> 100 µM (inactive)	> 100 µM (inactive)	> 100 µM (inactive)	> 100 µM (inactive)	> 100 µM (inactive)	> 100 µM (inactive)	> 100 µM (inactive)	> 100 µM (inactive)	> 100 µM (inactive)	> 100 µM (inactive)	> 100 µM (inactive)	> 100 µM (inactive)	> 100 µM (inactive)	–
CC(C)(C)OC(=O)NCC(=O)NC1c2ccsc2/C(=N/O)[C@H]1O (some centres not stated)	> 100 µM (inactive)	–	> 100 µM (inactive)	> 100 µM (inactive)	> 100 µM	> 100 µM (inactive)	> 100 µM (inactive)	5.28 µM (inactive)	> 100 µM (inactive)	> 100 µM (inactive)	> 100 µM (inactive)	> 100 µM (inactive)	> 100 µM (inactive)	> 100 µM (inactive)	> 100 µM (inactive)	> 100 µM (inactive)	–	> 100 µM (inactive)	> 100 µM (inactive)	–
Cc1ccc(NC(=O)c2cccc([N+](=O)[O-])c2O)c(C)c1	12.9 µM (inactive)	16.8 µM (inactive)	6.97 µM (inactive)	28.6 µM (inactive)	–	33.3 µM (inactive)	29.4 µM (inactive)	21 µM (inactive)	36.6 µM (inactive)	19.3 µM (inactive)	1.7 µM (inactive)	11.6 µM (inactive)	20.5 µM (inactive)	22.9 µM (inactive)	–	–	23.5 µM (inactive)	28.4 µM (inactive)	3.31 µM (inactive)	7.06 µM (inactive)
COC(=O)c1c(O)ccc2c1c1c(n2Cc2ccc(OC)cc2)C(=O)c2ccccc2C1	> 100 µM (inactive)	–	20.6 µM (inactive)	60.4 µM (inactive)	52.1 µM	> 100 µM (inactive)	21.7 µM (inactive)	76.7 µM (inactive)	38.7 µM (inactive)	40.8 µM (inactive)	> 100 µM (inactive)	30.8 µM (inactive)	–	> 100 µM (inactive)	20.3 µM (inactive)	44.6 µM (inactive)	51.2 µM (inactive)	82.8 µM (inactive)	41.6 µM (inactive)	–
COc1ccc2c(c1)c1c(n2CCN(C)C)-c2cccc(OC)c2CC1	19.1 µM (inactive)	17.9 µM (inactive)	13.1 µM (inactive)	13.3 µM (inactive)	15.3 µM	13.8 µM (inactive)	3.3 µM (inactive)	2.02 µM (inactive)	11 µM (inactive)	7.14 µM (inactive)	–	15.8 µM (inactive)	15.7 µM (inactive)	18.7 µM (inactive)	–	10.4 µM (inactive)	5.43 µM (inactive)	> 10 µM (inactive)	14.9 µM (inactive)	3.88 µM (inactive)
O=C(O)CCSC(=O)Nc1ccc([N+](=O)[O-])cc1	> 100 µM (inactive)	> 100 µM (inactive)	> 100 µM (inactive)	> 100 µM (inactive)	> 100 µM	> 100 µM (inactive)	> 100 µM (inactive)	> 100 µM (inactive)	> 100 µM (inactive)	> 100 µM (inactive)	–	> 100 µM (inactive)	–	> 100 µM (inactive)	> 100 µM (inactive)	–	19.4 µM (inactive)	> 100 µM (inactive)	> 100 µM (inactive)	–
CC(=O)c1ccc(N2CCN(C3=CC(=O)c4c(O)ccc(O)c4C3=O)CC2)cc1	> 100 µM (inactive)	–	> 100 µM (inactive)	7.57 µM (inactive)	5.41 µM	29.9 µM (inactive)	30.2 µM (inactive)	37.5 µM (inactive)	40.7 µM (inactive)	5.38 µM (inactive)	4.36 µM (inactive)	> 100 µM (inactive)	> 100 µM (inactive)	13.1 µM (inactive)	47.8 µM (inactive)	> 10 µM (inactive)	24.2 µM (inactive)	35.6 µM (inactive)	4.42 µM (inactive)	–
CO/N=C(/C(=O)Nc1c[n+](CC(=O)[O-])cs1)c1csc(N)n1	> 100 µM (inactive)	> 100 µM (inactive)	> 100 µM (inactive)	> 100 µM (inactive)	> 100 µM	–	> 100 µM (inactive)	> 100 µM (inactive)	> 100 µM (inactive)	> 100 µM (inactive)	> 100 µM (inactive)	–	> 100 µM (inactive)	> 100 µM (inactive)	–	> 100 µM (inactive)	–	> 100 µM (inactive)	> 100 µM (inactive)	> 100 µM (inactive)
CC1CCC2(NC1)OC1CC3[C@@H]4CC=C5C=CCC[C@]5(C)C4CC[C@]3(C)C1C2C (some centres not stated)	69.7 µM (inactive)	22.9 µM (inactive)	26.3 µM (inactive)	17.7 µM (inactive)	21 µM	18.6 µM (inactive)	15.1 µM (inactive)	18.5 µM (inactive)	22.4 µM (inactive)	21.7 µM (inactive)	18.5 µM (inactive)	18.2 µM (inactive)	23.6 µM (inactive)	17.9 µM (inactive)	18.8 µM (inactive)	15.3 µM (inactive)	15.5 µM (inactive)	19.7 µM (inactive)	21.8 µM (inactive)	–
c1ccc(C2SCC3=Nc4ccccc4CN32)cc1 (configuration not stated)	> 100 µM (inactive)	–	> 100 µM (inactive)	14.8 µM (inactive)	51.4 µM	26.1 µM (inactive)	17.8 µM (inactive)	33.5 µM (inactive)	31 µM (inactive)	34.7 µM (inactive)	–	78.2 µM (inactive)	25.8 µM (inactive)	18.2 µM (inactive)	10.8 µM (inactive)	14.4 µM (inactive)	30.5 µM (inactive)	87.5 µM (inactive)	29.9 µM (inactive)	–
CC1(C)C2CC(=O)C1(C)C(OCc1ccccc1)C2 (configuration not stated)	> 100 µM (inactive)	> 100 µM (inactive)	40.6 µM (inactive)	25.1 µM (inactive)	26.8 µM	86.1 µM (inactive)	40.6 µM (inactive)	22.2 µM (inactive)	24.8 µM (inactive)	16.3 µM (inactive)	32.9 µM (inactive)	–	29.4 µM (inactive)	> 100 µM (inactive)	–	26.3 µM (inactive)	34.2 µM (inactive)	29.6 µM (inactive)	62.7 µM (inactive)	22.2 µM (inactive)
CCCCCCOc1ccc(NC2=C(Cl)C(=O)c3cccnc3C2=O)cc1	> 10 µM (inactive)	2.1 µM (inactive)	–	0.895 µM (active)	1.79 µM	2.17 µM (inactive)	2.62 µM (inactive)	1.39 µM (inactive)	1.3 µM (inactive)	1.87 µM (inactive)	2.3 µM (inactive)	–	2.4 µM (inactive)	2.03 µM (inactive)	1.37 µM (inactive)	1.11 µM (active)	1 µM (active)	1.54 µM (inactive)	1.14 µM (inactive)	–
O=C1c2ccccc2OCC12OC21C=CC(Cl)=CC1 (configuration not stated)	20.7 µM (inactive)	38.5 µM (inactive)	–	18.9 µM (inactive)	28.6 µM	33.7 µM (inactive)	19.1 µM (inactive)	16.6 µM (inactive)	33.5 µM (inactive)	0.113 µM (active)	18.5 µM (inactive)	12.4 µM (inactive)	31.8 µM (inactive)	–	24.9 µM (inactive)	13.2 µM (inactive)	–	29.4 µM (inactive)	29.6 µM (inactive)	–
O=[N+]([O-])C1CC/C(=N/O)c2nonc21 (configuration not stated)	> 10 µM (inactive)	> 10 µM (inactive)	> 10 µM (inactive)	> 10 µM (inactive)	> 10 µM	> 10 µM (inactive)	> 10 µM (inactive)	> 10 µM (inactive)	> 10 µM (inactive)	> 10 µM (inactive)	> 10 µM (inactive)	> 10 µM (inactive)	> 10 µM (inactive)	> 10 µM (inactive)	> 10 µM (inactive)	> 10 µM (inactive)	–	> 10 µM (inactive)	> 10 µM (inactive)	–
Cc1ccc(NC(=S)C#N)cc1Cl	26.7 µM (inactive)	37.7 µM (inactive)	41.3 µM (inactive)	36.6 µM (inactive)	23.3 µM	49.1 µM (inactive)	30.1 µM (inactive)	39.3 µM (inactive)	36.9 µM (inactive)	32.8 µM (inactive)	23.4 µM (inactive)	–	24.8 µM (inactive)	35.7 µM (inactive)	29.4 µM (inactive)	24 µM (inactive)	21.5 µM (inactive)	48.8 µM (inactive)	–	–
N#Cc1cc(Sc2ccc(N)c(C#N)c2)ccc1N	43.8 µM (inactive)	31.2 µM (inactive)	–	12.1 µM (inactive)	9.51 µM	41.9 µM (inactive)	13.6 µM (inactive)	3.44 µM (inactive)	11.9 µM (inactive)	25.4 µM (inactive)	2.8 µM (inactive)	20.4 µM (inactive)	29.3 µM (inactive)	20.4 µM (inactive)	29.4 µM (inactive)	15.3 µM (inactive)	–	13.3 µM (inactive)	17.7 µM (inactive)	–

From ChEMBL document CHEMBL1201862, “PubChem BioAssay data set” (2004)
